# Results from US20050197364A1, “Amide compounds as ion channel ligands and uses thereof” (priority 2003, published 2005).
# System: VR1 receptor
# Assay: High throughput calcium imaging assay (Fura2, Flex Station) of VR1 antagonists, pH 5.1 stimulus
# Assay type: cell-based
# Conditions: 1 uM compound; inhibition of calcium ion influx induced by capsaicin stimulation
row,SMILES,% Inhibition @ 1 uM
1,COc1cc(C(=O)Nc2cc(OC)c(OC)c(OC)c2)ccc1-c1ncccc1Cl [Compound 246],+ + + + (“+ + + +” compound exhibited 75% or greater inhibition of calcium ion influx induced by capsaicin stimulation.)
2,COc1cc(C(=O)Nc2ccc3cn[nH]c3c2)ccc1-c1ncccc1Cl [Compound 247],+ + (“+ +” compound exhibited 25-50% inhibition of calcium ion influx induced by capsaicin stimulation.)
3,COc1cc(C(=O)Nc2ccc(C#N)c(Cl)c2)ccc1-c1ncccc1Cl [Compound 248],+ + + + (“+ + + +” compound exhibited 75% or greater inhibition of calcium ion influx induced by capsaicin stimulation.)
4,COc1cc(C(=O)Nc2cccc(C(F)(F)F)c2)ccc1-c1ncccc1Cl [Compound 250],+ + (“+ +” compound exhibited 25-50% inhibition of calcium ion influx induced by capsaicin stimulation.)
5,COc1cc(C(=O)Nc2cccc(OC(F)(F)F)c2)ccc1-c1ncccc1Cl [Compound 252],+ (“+” compound exhibited 0-25% inhibition of calcium ion influx induced by capsaicin stimulation.)
6,COc1cc(C(=O)Nc2cccc(OC(C)C)c2)ccc1-c1ncccc1Cl [Compound 253],+ (“+” compound exhibited 0-25% inhibition of calcium ion influx induced by capsaicin stimulation.)
7,COc1cc(C(=O)Nc2ccc(F)c(F)c2)ccc1-c1ncccc1Cl [Compound 254],+ + + (“+ + +” compound exhibited 50-75% inhibition of calcium ion influx induced by capsaicin stimulation.)
8,CCOc1ccc(NC(=O)c2ccc(-c3ncccc3Cl)c(OC)c2)cc1 [Compound 256],+ (“+” compound exhibited 0-25% inhibition of calcium ion influx induced by capsaicin stimulation.)
9,COc1cc(C(=O)Nc2ccc(OC)c(C(F)(F)F)c2)ccc1-c1ncccc1Cl [Compound 258],+ + (“+ +” compound exhibited 25-50% inhibition of calcium ion influx induced by capsaicin stimulation.)
10,COc1cc(C(=O)Nc2ccc(N3CCNCC3)c(Cl)c2)ccc1-c1ncccc1Cl [Compound 259],+ (“+” compound exhibited 0-25% inhibition of calcium ion influx induced by capsaicin stimulation.)
11,COc1cc(C(=O)Nc2ccc(-c3cnc[nH]3)cc2)ccc1-c1ncccc1Cl [Compound 260],+ + + (“+ + +” compound exhibited 50-75% inhibition of calcium ion influx induced by capsaicin stimulation.)
12,COc1cc(C(=O)Nc2ccc(Cl)cc2S(=O)(=O)O)ccc1-c1ncccc1Cl [Compound 261],+ (“+” compound exhibited 0-25% inhibition of calcium ion influx induced by capsaicin stimulation.)
13,CCN(CC)CCOC(=O)c1ccc(NC(=O)c2ccc(-c3ncccc3Cl)cc2)cc1 [Compound 265],+ (“+” compound exhibited 0-25% inhibition of calcium ion influx induced by capsaicin stimulation.)
14,CCOC(=O)c1cccc(NC(=O)c2ccc(-c3ncccc3Cl)cc2)c1 [Compound 269],+ (“+” compound exhibited 0-25% inhibition of calcium ion influx induced by capsaicin stimulation.)
15,COc1ccc(NC(=O)c2ccc(-c3ncccc3Cl)cc2)cc1O [Compound 271],+ (“+” compound exhibited 0-25% inhibition of calcium ion influx induced by capsaicin stimulation.)
16,O=C(Nc1ccc2cn[nH]c2c1)c1ccc(-c2ncccc2Cl)cc1 [Compound 273],+ + (“+ +” compound exhibited 25-50% inhibition of calcium ion influx induced by capsaicin stimulation.)
17,CCCOc1ccc(NC(=O)c2ccc(-c3ncccc3Cl)cc2)cc1 [Compound 274],+ (“+” compound exhibited 0-25% inhibition of calcium ion influx induced by capsaicin stimulation.)
18,O=C(Nc1ccc(OC(F)(F)F)cc1)c1ccc(-c2ncccc2Cl)cc1 [Compound 276],+ (“+” compound exhibited 0-25% inhibition of calcium ion influx induced by capsaicin stimulation.)
19,O=C(Nc1cccc(OC(F)(F)F)c1)c1ccc(-c2ncccc2Cl)cc1 [Compound 277],+ (“+” compound exhibited 0-25% inhibition of calcium ion influx induced by capsaicin stimulation.)
20,CC(C)Oc1cccc(NC(=O)c2ccc(-c3ncccc3Cl)cc2)c1 [Compound 278],+ (“+” compound exhibited 0-25% inhibition of calcium ion influx induced by capsaicin stimulation.)
21,O=C(Nc1ccc(F)c(F)c1)c1ccc(-c2ncccc2Cl)cc1 [Compound 279],+ (“+” compound exhibited 0-25% inhibition of calcium ion influx induced by capsaicin stimulation.)
22,CCOc1ccc(NC(=O)c2ccc(-c3ncccc3Cl)cc2)cc1 [Compound 281],+ (“+” compound exhibited 0-25% inhibition of calcium ion influx induced by capsaicin stimulation.)
23,O=C(Nc1ccc(N2CCNCC2)c(Cl)c1)c1ccc(-c2ncccc2Cl)cc1 [Compound 284],+ + + (“+ + +” compound exhibited 50-75% inhibition of calcium ion influx induced by capsaicin stimulation.)
24,CN1CCCc2ccc(NC(=O)c3ccc(-c4ncccc4Cl)cc3)cc21 [Compound 287],+ (“+” compound exhibited 0-25% inhibition of calcium ion influx induced by capsaicin stimulation.)
25,O=C(Nc1ccccc1)c1ccc(-c2ncccc2Cl)cn1 [Compound 289],+ + + + (“+ + + +” compound exhibited 75% or greater inhibition of calcium ion influx induced by capsaicin stimulation.)

row,SMILES,% Inhibition @ 1 uM
1,O=C(Nc1ccc(F)cc1)c1ccc(-c2ncccc2Cl)cn1 [Compound 291],+ (“+” compound exhibited 0-25% inhibition of calcium ion influx induced by capsaicin stimulation.)
2,N#Cc1ccccc1NC(=O)c1ccc(-c2ncccc2Cl)cn1 [Compound 292],+ (“+” compound exhibited 0-25% inhibition of calcium ion influx induced by capsaicin stimulation.)
3,O=C(Nc1ccccc1Cl)c1ccc(-c2ncccc2Cl)cn1 [Compound 297],+ + + + (“+ + + +” compound exhibited 75% or greater inhibition of calcium ion influx induced by capsaicin stimulation.)
4,N#Cc1cccc(NC(=O)c2ccc(-c3ncccc3Cl)cn2)c1 [Compound 299],+ + + + (“+ + + +” compound exhibited 75% or greater inhibition of calcium ion influx induced by capsaicin stimulation.)
5,CCCCc1ccc(NC(=O)c2ccc(-c3ncccc3Cl)cn2)cc1 [Compound 302],+ + + (“+ + +” compound exhibited 50-75% inhibition of calcium ion influx induced by capsaicin stimulation.)
6,O=C(Nc1ccc(C2CCCCC2)cc1)c1ccc(-c2ncccc2Cl)cn1 [Compound 303],+ + + + (“+ + + +” compound exhibited 75% or greater inhibition of calcium ion influx induced by capsaicin stimulation.)
7,O=C(Nc1ccc(C(F)(F)F)cc1)c1ccc(-c2ncccc2Cl)cn1 [Compound 308],+ (“+” compound exhibited 0-25% inhibition of calcium ion influx induced by capsaicin stimulation.)
8,COc1cc(NC(=O)c2ccc(-c3ncccc3Cl)cn2)cc(C(F)(F)F)c1 [Compound 311],+ (“+” compound exhibited 0-25% inhibition of calcium ion influx induced by capsaicin stimulation.)
9,Cc1cc(C)nc(NC(=O)c2ccc(-c3ncccc3Cl)cn2)c1 [Compound 312],+ (“+” compound exhibited 0-25% inhibition of calcium ion influx induced by capsaicin stimulation.)
10,O=C(Nc1ccncc1)c1ccc(-c2ncccc2Cl)cn1 [Compound 313],+ + + (“+ + +” compound exhibited 50-75% inhibition of calcium ion influx induced by capsaicin stimulation.)
11,O=C(Nc1ccc(N2CCNCC2)cc1)c1ccc(-c2ncccc2Cl)cn1 [Compound 317],+ (“+” compound exhibited 0-25% inhibition of calcium ion influx induced by capsaicin stimulation.)
12,Cc1ccnc(NC(=O)c2ccc(-c3ncccc3Cl)cn2)c1 [Compound 318],+ (“+” compound exhibited 0-25% inhibition of calcium ion influx induced by capsaicin stimulation.)
13,O=C(Nc1ccncn1)c1ccc(-c2ncccc2Cl)cn1 [Compound 319],+ + + + (“+ + + +” compound exhibited 75% or greater inhibition of calcium ion influx induced by capsaicin stimulation.)
14,COc1ccc(NC(=O)c2ccc(-c3ncccc3Cl)cn2)cn1 [Compound 324],+ + (“+ +” compound exhibited 25-50% inhibition of calcium ion influx induced by capsaicin stimulation.)
15,O=C(Nc1ccnc(Cl)c1)c1ccc(-c2ncccc2Cl)cn1 [Compound 325],+ (“+” compound exhibited 0-25% inhibition of calcium ion influx induced by capsaicin stimulation.)
16,Cc1cc(NC(=O)c2ccc(-c3ncccc3Cl)cn2)nc(C)n1 [Compound 326],+ (“+” compound exhibited 0-25% inhibition of calcium ion influx induced by capsaicin stimulation.)
17,O=C(Nc1ccc2ncccc2c1)c1ccc(-c2ncccc2Cl)cn1 [Compound 327],+ (“+” compound exhibited 0-25% inhibition of calcium ion influx induced by capsaicin stimulation.)
18,CCn1c2ccccc2c2cc(NC(=O)c3ccc(-c4ncccc4Cl)cn3)ccc21 [Compound 328],+ + + + (“+ + + +” compound exhibited 75% or greater inhibition of calcium ion influx induced by capsaicin stimulation.)
19,O=C(Nc1ccc2ccccc2c1)c1ccc(-c2ncccc2Cl)cn1 [Compound 331],+ + (“+ +” compound exhibited 25-50% inhibition of calcium ion influx induced by capsaicin stimulation.)
20,O=C(Nc1ccc(OCc2ccccc2)cc1)c1ccc(-c2ncccc2Cl)cn1 [Compound 332],+ (“+” compound exhibited 0-25% inhibition of calcium ion influx induced by capsaicin stimulation.)
21,CCOC(=O)c1ccc(NC(=O)c2ccc(-c3ncccc3Cl)cn2)cc1 [Compound 333],+ (“+” compound exhibited 0-25% inhibition of calcium ion influx induced by capsaicin stimulation.)
22,COc1ccc(NC(=O)c2ccc(-c3ncccc3Cl)cn2)cc1O [Compound 338],+ + (“+ +” compound exhibited 25-50% inhibition of calcium ion influx induced by capsaicin stimulation.)
23,COc1cc(NC(=O)c2ccc(-c3ncccc3Cl)cn2)cc(OC)c1OC [Compound 339],+ (“+” compound exhibited 0-25% inhibition of calcium ion influx induced by capsaicin stimulation.)
24,O=C(Nc1ccc2cc[nH]c2c1)c1ccc(-c2ncccc2Cl)cn1 [Compound 340],+ + + + (“+ + + +” compound exhibited 75% or greater inhibition of calcium ion influx induced by capsaicin stimulation.)
25,CCCOc1ccc(NC(=O)c2ccc(-c3ncccc3Cl)cn2)cc1 [Compound 341],+ (“+” compound exhibited 0-25% inhibition of calcium ion influx induced by capsaicin stimulation.)
